Experimental data published in paper PMC6538953, “Metal Ions Activate the Human Taste Receptor TAS2R7” (Chemical Senses, 2019).
Where a chain is given by its changes, count along the chain named. Entries after “also recorded” stand apart in the source; their conditions may differ. Counter-ions that a name gives are not always drawn. Like-named read-outs stand apart in the source and are kept apart here.

Legend:
[1] = biological target: T1, human TAS2R7 (Homo sapiens, UniProt Q9NYW3); assay: Calcium mobilization assay, HEK293 cells transfected with TAS2R7 and Gα16-gust44; type: cell-based; details: for Dose dependence of TAS2R7 response: Figure 2A,C; for Compounds triggering detectable responses in cells transfected with TAS2R7: at the concentrations reported previously (Meyerhof et al. 2010), Figure 4A
T1 construct: first 45 residues of rat somatostatin receptor 3 (signal peptide) (N); expressed in transfected cells; host or cells: HEK293 (PEAKrapid, ATCC CRL-2828)
T1 sequence (Q9NYW3 1-318): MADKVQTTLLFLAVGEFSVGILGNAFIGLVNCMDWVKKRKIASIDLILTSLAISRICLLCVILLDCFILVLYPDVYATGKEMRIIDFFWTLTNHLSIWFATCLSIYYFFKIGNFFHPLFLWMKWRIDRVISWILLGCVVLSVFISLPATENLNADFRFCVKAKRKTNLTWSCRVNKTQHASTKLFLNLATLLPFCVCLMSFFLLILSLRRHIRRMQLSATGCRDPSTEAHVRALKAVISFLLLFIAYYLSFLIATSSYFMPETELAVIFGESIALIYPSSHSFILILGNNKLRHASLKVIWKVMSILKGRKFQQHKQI
Description: (§1) The coding sequences of human TAS2Rs were amplified from human genomic DNA, then subcloned into pcDNA3.1(+) vector, with the herpes simplex virus glycoprotein D epitope (HSV) at the C-terminal and a signal peptide consisting of the first 45 amino acid residues of the rat somatostatin receptor 3 at the N-terminal, essentially as described previously ([Bufe et al. 2002]). Point mutations in human TAS2R7 (NCBI Reference Sequence: NP_076408.1) were constructed by site-directed mutagenesis. All the constructs were confirmed by Sanger sequencing.
All tested compounds were purchased from Sigma–Aldrich, with the exception of diphenidol hydrochloride (Reagent World) and L-praziquantel (manufactured by Shaoxing Pharmaceutical Co. Ltd.). All the metal ions were dissolved in the assay solution (130 mM NaCl, 5 mM KCl, 2 mM CaCl2, and 10 mM glucose; pH 7.4) unless specified otherwise, and the bitter compounds (diphenidol, quinine, and chlorphenamine) were dissolved first in dimethyl sulfoxide (DMSO) as stock solution and then diluted with the assay solution; the final DMSO concentration was below 0.5%, with the exception of cromolyn, which is dissolved in the assay solution directly. For our initial screening (Table 1), Hanks’ balanced salt solution (HBSS, ThermoFisher, catalog no. 14025134) supplemented with 10 mM hydroxyethyl piperazineethanesulfonic acid (HEPES) were used as the assay buffer.
(§2) Human embryonic kidney 293 (PEAKrapid, ATCC # CRL-2828) cells were cultured in Opti-MEM medium with 4% fetal bovine serum. One day before transfection, cells were seeded on a 96-well plate at a density of 25 000 per well. Cells were then transiently transfected with a TAS2R construct (0.1 µg/well) along with a G protein Gα16-gust44 (0.1 µg/well) construct by Lipofectamine 2000 (0.5 µl/well). For controls, only Gα16-gust44 was used (mock transfection). Twenty-four hours after transfection, cells were washed with HBSS including 10 mM HEPES and loaded with Fluo-4 in the dark for 1 h. After incubation, cells were washed 2 times with HBSS (including 10 mM HEPES), incubated in the dark for another 30 min, and then washed with assay solution once more before running the assay using a FlexStation III reader. Relative fluorescence units (excitation at 494 nm, emission at 516 nm, and auto cutoff at 515 nm) were read every 2 s for 2 min. Calcium mobilization traces were recorded.
(§3) Calcium mobilization traces were raw data obtained from single wells. Changes in fluorescence (ΔF) were calculated as the peak fluorescence minus baseline fluorescence ([Lei et al. 2015]). The calcium mobilization was quantified as the percentage of change (ΔF) relative to baseline (F). […] Calcium mobilization traces and bar graphs along with dose-dependent plots were all generated by GraphPad Prism 7. Analysis of variance with Dunnett’s multiple comparisons test was used for statistical analysis. *P < 0.05.
To determine whether a TAS2R responds to metal ions, we expressed all 25 human bitter receptors individually in HEK293 cells (PEAKrapid) by transient transfection of a TAS2R along with a coupling chimeric G protein, Gα16-gust44. All TAS2Rs were cloned from human genomic DNA. Activation of human TAS2Rs was monitored by the calcium mobilization assay ([Lei et al. 2015]). We tested these receptors individually for their responses toward metal ions: ZnSO4 (20 mM), CuSO4 (20 mM), and MgCl2 (20 mM) (Table 1, Figure 1A). […] To determine the breadth of tuning of TAS2R7 toward metal ions, we also tested MnCl2 (20 mM), Al2(SO4)3 ([…]), and CaCl2 (20 mM) (Figure 1B).

[2] = biological target: T2, human TAS2R7 E264^7.32K mutant (Homo sapiens, UniProt Q9NYW3, E264K); assay: Calcium mobilization assay, TAS2R7 mutant E264K; type: cell-based; details: 20 mM metal ions except 0.16 mM Al2(SO4)3; cromolyn 10 mM; Figure 6B
T2 construct: signal peptide: first 45 amino acid residues of rat somatostatin receptor 3 (N); expressed in transfected cells; host or cells: HEK293 PEAKrapid (ATCC CRL-2828), transient, co-transfected with Gα16-gust44
T2 sequence (Q9NYW3 1-318 E264K): T1 sequence (Q9NYW3 1-318) with E264K
Description: as §1, §2, §3
To assess the importance of these residues, we performed site-directed mutagenesis. We mutated the negatively charged residues E16^1.42, E264^7.32, and E271^7.39 to Q (glutamine), K (lysine), or L (leucine). The facing H94^3.37 was mutated to F (phenylalanine). HEK293 cells that expressed mutant receptors along with Gα16-gust44 were examined for their responses to metal ions (20 mM for all except 0.16 mM Al2(SO4)3) and cromolyn (10 mM, as a positive control) to assess receptor’s function. To determine the expression level of each receptor, we stained the wild-type or mutant receptor-transfected cells using an anti-HSV antibody since all the receptors are tagged with HSV at c-terminal. […]

[3] = biological target: T3, human TAS2R7 E264^7.32L mutant (Homo sapiens, UniProt Q9NYW3, E264L); assay: Calcium mobilization assay, TAS2R7 mutant E264L; type: cell-based; details: 20 mM metal ions except 0.16 mM Al2(SO4)3; cromolyn 10 mM; Figure 6B
T3 construct: signal peptide: first 45 amino acid residues of rat somatostatin receptor 3 (N); expressed in transfected cells; host or cells: HEK293 PEAKrapid (ATCC CRL-2828), transient, co-transfected with Gα16-gust44
T3 sequence (Q9NYW3 1-318 E264L): T1 sequence (Q9NYW3 1-318) with E264L
Description: as §1, §2
Calcium mobilization traces were raw data obtained from single wells. Changes in fluorescence (ΔF) were calculated as the peak fluorescence minus baseline fluorescence ([Lei et al. 2015]). The calcium mobilization was quantified as the percentage of change (ΔF) relative to baseline (F). […] Calcium mobilization traces and bar graphs along with dose-dependent plots were all generated by GraphPad Prism 7. Analysis of variance with Dunnett’s multiple comparisons test was used for statistical analysis. *P < 0.05. […]

[4] = biological target: T1, human TAS2R7; set-up: method as in Meyerhof et al. 2010; details: ref Meyerhof et al. 2010; cited from earlier work
[5] = assay solution containing calcium, Figures 3A, 4C, read-out: EC50, TAS2R7, in the presence of calcium
[6] = assay solution containing no calcium, Figures 3A, 4C, read-out: EC50, TAS2R7, in the absence of calcium
[7] = assay solution with 2 mM CaCl2, Figure 2, read-out: EC50, TAS2R7 concentration-response
[8] = Supplementary Figure S2, read-out: EC50, TAS2R7, comparison of anions

Row | SMILES | Dose dependence of TAS2R7 response [1] | EC50 [1, 5] [mM] | EC50 [1, 6] [mM] | EC50 [1, 7] [mM] | TAS2R7 reported to respond to bitter compounds [4] | Compounds triggering detectable responses in cells transfected with TAS2R7 [1] | other results
1 | [Ca+2].[Cl-].[Cl-] [CaCl2] | dose-dependent responses | 7.56 | 4.7 | 5.27 ± 0.5 | – | – | Activation of TAS2R7 by metal ions ([1]; 20 mM, Figure 1A,B): activated the receptor
2 | O=S(=O)([O-])[O-].[Cu+2] [CuSO4] | dose-dependent responses | 1.89 | 0.85 | 1.04 ± 0.36 | – | – | –
3 | [Cl-].[K+] [KCl, potassium chloride] | – | – | – | – | – | – | Activation of TAS2R7 by monovalent salt ([1]; any concentration tested, Figures 1C,D and 2A): did not activate the receptor; also recorded: not responsive
4 | [Cl-].[Cl-].[Mg+2] [MgCl2] | dose-dependent responses | 7.84 | 5.78 | 6.07 ± 1.07 | – | – | Maximal response of TAS2R7 in the absence versus presence of calcium ([1]; assay solution without calcium compared with calcium): smaller
5 | [Cl-].[Cl-].[Zn+2] [ZnCl2] | – | – | – | – | – | – | EC50 [1, 8]: 3.42 mM
6 | O=S(=O)([O-])[O-].[Zn+2] [ZnSO4] | dose-dependent responses | 2.41 | 3.49 | – | – | – | EC50 [1, 8]: 3.21 mM; Response of E264K mutant receptor [2]: specific loss of responses; Response of E264L mutant receptor [3]: responded
7 | CN(C)CCC(c1ccc(Cl)cc1)c1ccccn1 (stereo not shown) [chlorphenamine, reference compound] | – | – | – | – | respond | none | –
8 | OC(CCCN1CCCCC1)(c1ccccc1)c1ccccc1 [diphenidol, diphenidol hydrochloride, reference compound] | – | – | – | – | respond | none | –
9 | C=C[C@H]1C[N@@]2CC[C@H]1C[C@H]2[C@H](O)c1ccnc2ccc(OC)cc12 [quinine, reference compound] | – | – | – | – | respond | none | –
